For assay [1], the target named is T1, FKBP25-rapalog-mTOR (amino acids 2019-2112) ternary complex (Homo sapiens, UniProt P42345+Q00688).
T1 construct: his^6-mTOR (amino acids 2019-2112) was diluted in buffer; made in house; host or cells: E. coli
Description: SPR ternary complex formation, rapalog bound to FKBP25 with mTOR. In kind it is binding. The note with it: rapalog bound to FKBP with mTOR, read-out: FKBP25 apparent affinity KD for ternary complex formation. As to the method:
(§1) N-terminal avi-his6-tagged FKBP fusion proteins were expressed in E. coli and purified with nickel chromatography using standard procedures. Biotinylated his-avi-FKBPs were immobilized on a streptavidin chip using a Biacore 8K (GE Healthcare). To determine the kinetics-affinity of the rapalogs for FKBPs, rapalogs were diluted in DMSO to 50× working concentration. Next, 3.1 uLs of each rapalog solution was added to 150 uLs of buffer (50 mM Tris pH 7.5/150 mM NaCl/0.01% Tween 20/1 mM DTT) in a 384 deep well plate (greiner bio-one/78127) and mixed using a Biomek FX. The rapalog solution gradients (6 concentrations/2 fold dilutions, 3.1-100 nM or 31-1000 nM or 310-10000 nM) were then injected at 45 uL/min for 120 seconds: contact time and dissociation time was 1800 seconds in running buffer (50 mM Tris pH 7.5/150 mM NaCl/0.01% Tween 20/1 mM DTT/2% DMSO). The single-cycle kinetics data were fit to a 1:1 binding model to measure the association rate ka (1/Ms), the dissociation rate kd (1/s) and the affinity KD (M). […] 3.1 uLs of the 500 μM rapalog solutions were added to 150 uLs of the mTOR samples in a 384 deep well plate (greiner bio-one/78127) and mixed using a Biomek FX. The mTOR solution gradients were then injected at 45 uL/min for 120 seconds: contact time and dissociation time was 1800 seconds in running buffer (50 mM Tris pH 7.5/150 mM NaCl/0.01% Tween 20/1 mM DTT/2% DMSO). […]

For assay [2], the system named is mTORC1 activity, S6K1 (Thr389) in FKBP12/12.6/25/52/51 knock-out 293T cells. Nature of the assay: S6K1(Thr389) phosphorylation ELISA in FKBP12/12.6/25/52/51 knock-out 293T cells. Format: cell-based. An excerpt:
(§2) A CRISPR/Cas9 system was used to deliver ribonucleoprotein complexes containing guide RNA (gRNA) sequences that target FKBP12
(§3) ([…], location 35620248) into 293T cells, using the Amaxa® 4D-Nucleofector™ X Kit (Lonza, V4XC-2032). Cell clones were screened by immunoblotting with anti-FKBP-specific antibodies: FKBP12 (Novus, NB300-508), FKBP12.6 (Abnova, H00002281-M01), FKBP13 (R&D Systems, MAB4356), FKBP25 (R&D Systems, MAB3955), FKBP52 (Cell signaling Technology, #11826) and FKBP51 (Cell signaling Technology, #12210). […] Quintuple FKBP12/12.6/13/52/51 knock-out and FKBP12/12.6/25/52/51 knock-out cells were generated by sequentially knocking out five FKBP genes.
(§4) WT, FKBP12 knock-out, FKBP12/12.6/13/52/51 knock-out or FKBP12/12.6/25/52/51 knock-out 293T cells were plated at a density of 30,000 cells per well in poly-D-Lysine coated 96-well plates (Corning, #354461) in Dulbecco's modified Eagle's medium (ThermoFisher, #11995-065) supplemented with 10% fetal bovine serum (ThermoFisher, #16140-071). Cells were incubated at 37° C., 5% CO2 for 48 hours until they reached ˜80% confluence. […] Media supplemented with blank Dimethyl sulfoxide (DMSO) was used as a control for both compounds. Phosphorylated amounts of S6K1 (Thr389) were detected by a sandwich ELISA kit (Cell signaling, #7063C) following the manufacture's protocol.
For orientation: In an ELISA, binding on a coated surface is turned into a signal by an enzyme label.

Assay [3] concerns the target T2, FKBP12.6-rapalog-mTOR (amino acids 2019-2112) ternary complex (Homo sapiens, UniProt P42345+P68106).
T2 construct: his^6-mTOR (amino acids 2019-2112) was diluted in buffer; made in house; host or cells: E. coli
Description: SPR ternary complex formation, rapalog bound to FKBP12.6 with mTOR. Format: binding. Conditions: rapalog bound to FKBP with mTOR, read-out: FKBP12.6 apparent affinity KD for ternary complex formation. As to the method:
as §1

Another assay addresses T3, FKBP51 (Homo sapiens, UniProt Q13451).
T3 construct: made in house; host or cells: E. coli
T3 sequence (Q13451 1-457): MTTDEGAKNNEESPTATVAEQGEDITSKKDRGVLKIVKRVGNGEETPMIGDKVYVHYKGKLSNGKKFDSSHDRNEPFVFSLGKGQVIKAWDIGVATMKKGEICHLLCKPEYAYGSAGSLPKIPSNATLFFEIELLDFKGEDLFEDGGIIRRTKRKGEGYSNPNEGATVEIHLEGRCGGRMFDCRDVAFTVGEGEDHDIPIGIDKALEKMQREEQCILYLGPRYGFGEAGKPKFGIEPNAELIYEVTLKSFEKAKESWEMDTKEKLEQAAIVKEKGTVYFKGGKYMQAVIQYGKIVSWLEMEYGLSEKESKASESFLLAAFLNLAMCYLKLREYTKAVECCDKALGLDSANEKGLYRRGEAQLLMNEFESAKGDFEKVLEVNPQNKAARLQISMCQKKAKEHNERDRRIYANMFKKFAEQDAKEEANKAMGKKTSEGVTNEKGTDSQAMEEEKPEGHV
Nature of the assay: SPR assay, binding affinity to FKBP51. The note with it: equilibrium dissociation constant. From the text: N-terminal avi-his6-tagged FKBP fusion proteins were expressed in E. coli and purified with nickel chromatography using standard procedures. Biotinylated his-avi-FKBPs were immobilized on a streptavidin chip using a Biacore 8K (GE Healthcare). […] The single-cycle kinetics data were fit to a 1:1 binding model to measure the association rate ka (1/Ms), the dissociation rate kd (1/s) and the affinity KD (M). […] The single-cycle kinetics data was fit to a 1:1 binding model to measure the association rate ka (1/Ms), the dissociation rate kd (1/s) and the apparent affinity KD (M) for ternary complex formation. The equilibrium dissociation constants (KD) to FKBP12, FKBP51, and FKBP52 are shown below in Table 6.
A general note: In SPR one partner is held on a chip, and binding of the other changes the refractive index at the surface.

For assay [4], the system named is mTORC1 activity, S6K1 (Thr389) in FKBP12 knock-out 293T cells. Description: S6K1(Thr389) phosphorylation ELISA in FKBP12 knock-out 293T cells. Format: cell-based. Conditions: 2 hours.
Text: as §2, §3, §4

T2 sequence (P68106 whole entry, the tested form may be a part): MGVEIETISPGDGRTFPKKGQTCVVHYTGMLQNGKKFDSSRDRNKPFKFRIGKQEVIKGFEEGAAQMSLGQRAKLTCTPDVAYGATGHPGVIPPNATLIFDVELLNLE
T2 sequence (P42345 2019-2112 limits assumed): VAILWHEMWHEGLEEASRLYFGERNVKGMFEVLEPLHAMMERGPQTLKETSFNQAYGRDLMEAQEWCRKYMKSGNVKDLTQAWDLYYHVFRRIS
T1 sequence (Q00688 whole entry, the tested form may be a part): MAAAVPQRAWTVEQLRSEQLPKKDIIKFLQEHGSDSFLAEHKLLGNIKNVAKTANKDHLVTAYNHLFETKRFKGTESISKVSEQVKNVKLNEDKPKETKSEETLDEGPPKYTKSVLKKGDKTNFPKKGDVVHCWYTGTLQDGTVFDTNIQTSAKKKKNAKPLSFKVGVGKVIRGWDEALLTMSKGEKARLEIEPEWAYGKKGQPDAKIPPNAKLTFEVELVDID
T1 sequence (P42345 2019-2112 limits assumed): as the sequence (P42345 2019-2112 limits assumed) above

As for `CO[C@@H]1C[C@H](C[C@@H](C)[C@@H]2CC[C@H](C)/C=C(\C)[C@@H](O)[C@@H](OC)C(=O)[C@H](C)C[C@H](C)/C=C/C=C/C=C(\C)[C@@H](NS(C)(=O)=O)C[C@@H]3CC[C@@H](C)[C@@](O)(O3)C(=O)C(=O)N3CCCC[C@H]3C(=O)O2)CC[C@H]1O` [Compound 2], the Kd in assay [1] was determined as 2 nM; in assay [3], 55 nM; at FKBP51, 144 nM. In addition, in assay [2], the “inhibitory effect (potency) on S6K1 (Thr389), in words” value was “neither RAD001 nor Compound 2 were efficacious”. Besides, in assay [4], the “de-phosphorylation of S6K1(Thr389)” value is roughly 70%.
For `CO[C@H]1C[C@@H]2CC[C@@H](C)[C@@](O)(O2)C(=O)C(=O)N2CCCC[C@H]2C(=O)O[C@H]([C@H](C)C[C@@H]2CC[C@@H](OCCO)[C@H](OC)C2)CC(=O)[C@H](C)/C=C(\C)[C@@H](O)[C@@H](OC)C(=O)[C@H](C)C[C@H](C)/C=C/C=C/C=C/1C` [RAD001, everolimus, reference compound], in that order: 75 nM, 47 nM, 811 nM, “neither RAD001 nor Compound 2 were efficacious” and roughly 40%.
